These results are taken from patent US5212072A, “Polypeptides complementary to peptides or proteins having an amino acid sequence or nucleotide coding sequence at least partially known and methods of design therefor” (Board of Regents, The University of Texas System, priority 1991, dated 1993).

One test relates to female ICR mice. Kind of test: Induction of catatonia in mice by i.c. injection of serum. Format: in vivo. The settings on record: simultaneous i.c. injection 0.2 mg. An excerpt: It is well known that large doses of opiate-like substances can induce a catatonic state in animals which is inhibited or reversed by treatment with the opiate antagonist naloxone. In analogy with the results in earlier examples, the ability of a peptide (qamma-ODNE) complementary to an opiate peptide, qamma-endorphin, to induce antibodies that have opiate properties was examined.
Gamma-ODNE (Example II) was conjugated to Keyhole Limpet Hemocyanin ([…]) and used with Freund's adjuvant to generate rabbit antibodies in a conventional manner (see Example 1F). Both normal and induced rabbit sera were injected intracerebroventicularly (i.c.) into female ICR mice.

Test [1] addresses T1, mouse adrenal tumor cell ACTH receptor (Mus musculus, UniProt Q64326).
T1 construct: Duplicate cultures of mouse adrenal tumor (Y-1) cells in microtiter plates; endogenous in cells; host or cells: mouse adrenal tumor (Y-1) cells
Put plainly: Glucocorticoid hormone production by mouse adrenal tumor (Y-1) cells. Format: cell-based. To be noted: ACTH 10 microunits/well, 18 hrs. Here is the method: An induction of glucocorticoid hormone production by ACTH and anti-HTCA was found with cultured mammalian cells. Duplicate cultures of mouse adrenal tumor (Y-1) cells in microtiter plates were treated with culture media, ACTH (10 microunits/well) or various dilutions of the anti-HTCA.
^a Duplicate cultures of mouse adrenal (Y1) cells in microtiter plate
were treated with culture media, ACTH (10 microunits/well) or the
indicated dilutions of antibody to HTCA. After 18 hrs incubation at
37° in 4% CO2, replicate cultures were pooled and assayed for
glucocorticoid hormone production by a radioimmunoassay (RIA) for […]

A further test relates to HTCA. Put plainly: Solid phase radiobinding assay for serum ACTH on HTCA-coated wells. Format: binding. The settings on record: for Log10 Dilution at 50% inhibition: graphic interpolation. Here is the method:
Complementary peptide (HTCA) was dissolved in phosphate buffered saline (PBS) at 1 mg/ml and 200 ul aliquots were placed in wells of a 96 well polyvinyl assay plate (Microtest III, Falcon Cat. #3911). HTCA was allowed to coat the wells overnight at 4° C. The coating solution was removed and the wells were washed three times with PBS. Radiolabeled ACTH (^125 I-ACTH, New England Nuclear NEX-65) was diluted into PBS containing 0.0005% TWEEN-20 so as to deliver 50 pg (or about 30,000 cpm) in a 20 ul volume.
Serum samples were prepared in a 96 well tissue culture plate by serial dilution of serum into PBS/TWEEN 20 to give a final volume of 180 ul/well. The serum samples were then transferred to the HTCA coated a ssay plate and allowed to incubate. Finally, 20 ul of ^125 I-ACTH solution was added, incubated, and the total sample of 200 ul was removed. After washing three times with PBS, the wells were cut from the plate and counted in a gamma counter.
Serum samples used in this study contained either 50 pg/ml or 500 pg/ml of ACTH added to fetal calf serum (FCS).

In test [2] the test system is mouse adrenal tumor (Y-1) cells. Put plainly: Binding of anti-HTCA to affixed mouse adrenal tumor (Y-1) cells. To be noted: absorbency at 405 nM; FIG. 5. As to the method:
Mouse adrenal tumor (Y-1) cells were affixed by glutaraldehyde in flat bottom wells of a microtiter plate. The affixed cells were then treated with rabbit anti-KLH or rabbit anti-HTCA alone or in the presence of several levels of ACTH. After washing, the microtiter wells were treated with goat antibody to rabbit immunoglobulin the goat antibody being coupled to the enzyme alkaline phosphatase. After washing away unbound antibody-phosphatase complex, p-nitrophenyl phosphate was added and the enzyme dependent development of absorbency at 405 nM was monitored. […] ACTH and anti-HTCA appeared competitive for the same binding site on the mouse adrenal tumor (Y-1) cells. Rabbit anti KLH had no effect (shaded region)

Another test has as its target T2, bovine gamma-endorphin (Bos taurus, UniProt P01190).
T2 construct: purchased Boehringer Mannheim (Indianapolis, Ind.); host or cells: chemical synthesis
Put plainly: ELISA binding of gamma-endorphin to coated wells. The settings on record: gamma-odne 40 ug/well vs insulin or BSA; absorbance 405 nm; FIG. 7. Here is the method: Synthetic bovine gamma-endorphin was obtained from Boehringer Mannheim (Indianapolis, Ind.) and rabbit antibody for synthetic gamma-endo was obtained from Accurate Biochemicals (Westbury, N.Y.).
The wells of a 96-well round-bottomed microtiter plate were coated (by the procedure described in Example 1B) with gamma-odne (40 ug/well), insulin (20U/well) or bovine serum albumin (BSA,200 ug/well . Varying concentrations of gamma-endorphin (as shown on the abscissa in FIG. 7) were incubated in the coated wells for 1 hr, after which the plates were thrice washed with PBS-Tween buffer. The wells were then treated with rabbit antibody for gamma-endorphin, washed, and then treated with goat antibody against rabbit immunoglobulin the goat antibody being conjugated to alkaline phosphatase. After washing away unbound goat antibody conjugate, the bound alkaline phosphatase activity was measured with p-nitrophenylphosphate as earlier described. The results of the above manipulations are shown in FIG. 7 where the extent of absorbance at 405 nm reflects the degree of gamma-endorphin binding to wells coated with gamma-odne, insulin or BSA. […] The shaded area in FIG. 7 represents the extent of gamma-endorphin binding in the presence of soluble excess of gamma-odne. Thus it is shown that a second pair of complementary peptides interacts in a manner showing affinity and apparent congruence.

In test [3] the test system is opiate receptors on NG108-15 cells. Put plainly: Inhibition of 125I-beta-endorphin binding to NG108-15 cells. To be noted: 125I-beta-endorphin 10^-11 M. An excerpt:
NG108-15 cells are known to contain receptors for beta-endorphin called opiate receptors. In addition to beta-endorphin, gamma-endorphin and several analogs of beta-endorphin bind to these opiate receptors. The peptide, gamma-ODNE, complementary to gamma-endorphin described in Example II was examined for its ability to inhibit the binding of ^125 I-beta-endorphin to opiate receptors on NG108-15 cells. Gamma-endorphin is a fragment of the larger peptide beta-endorphin.
Seventy percent of the total binding was specific by conventional criteria.
For this experiment, ^1251 -beta-endorphin was preincubated 30 minutes with various amounts of the complementary peptide, gamma-ODNE, before a 30 minute (37° C.) incubation with NG108-15 cells in microtiter wells. After the incubation, cells were washed 3 times and cell associated radioactivity wad determined with a Packard Multi-Prias gamma counter.

Where no end group is shown, it is not given here.

HTCA, sequence (as listed by the source): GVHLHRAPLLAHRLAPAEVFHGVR
T1 sequence (Q64326 whole entry): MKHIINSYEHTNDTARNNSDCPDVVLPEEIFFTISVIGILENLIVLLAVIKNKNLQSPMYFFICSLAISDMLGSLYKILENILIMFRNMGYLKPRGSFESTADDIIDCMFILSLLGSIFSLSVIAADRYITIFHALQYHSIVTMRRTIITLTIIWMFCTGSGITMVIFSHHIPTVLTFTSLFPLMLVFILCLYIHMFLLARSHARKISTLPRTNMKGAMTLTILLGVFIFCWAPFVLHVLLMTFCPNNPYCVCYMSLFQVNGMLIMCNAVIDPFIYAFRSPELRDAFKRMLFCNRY
T1 sequence (Q9D159 whole entry partner): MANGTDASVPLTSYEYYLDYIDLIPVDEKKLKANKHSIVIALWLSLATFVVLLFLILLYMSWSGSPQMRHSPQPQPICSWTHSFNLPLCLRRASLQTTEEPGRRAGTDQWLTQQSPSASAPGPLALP

For the molecule `C=CCN1CC[C@]23c4c5ccc(O)c4O[C@H]2C(=O)CC[C@@]3(O)[C@H]1C5` [naloxone], the “effect on serum-induced catatonia” value in the test on female ICR mice is recorded as “reversed”.
Consider “ACTH: Synthetic ACTH, fragment 1-24, from Organon; unlabelled ACTH competitor in binding assays”, for which, in test [1], the “Corticosterone equivalents, Experiment 1” value came out at 1.08 µg/mL. The “Corticosterone equivalents, Experiment 2” value in test [1] was 1.42 µg/mL. For the same molecule, the “% Inhibition of Specific Binding” value with HTCA (50 pg/ml ACTH in FCS, Log10 Dilution -0.5) amounted to 73%; in the test on HTCA (50 pg/ml ACTH in FCS, Log10 Dilution -1.0), 40%; in the test on HTCA (50 pg/ml ACTH in FCS, Log10 Dilution -1.5), 44%; in the test on HTCA (50 pg/ml ACTH in FCS, Log10 Dilution -2.0), 9%; with HTCA (50 pg/ml ACTH in FCS, Log10 Dilution -2.5) it was 1%; with HTCA (50 pg/ml ACTH in FCS, Log10 Dilution -3.0), 0%. Moreover, the “% Inhibition of Specific Binding” value was 0% in the test on HTCA (50 pg/ml ACTH in FCS, Log10 Dilution -3.5); 90% with HTCA (500 pg/ml ACTH in FCS, Log10 Dilution -0.5); 77% in the test on HTCA (500 pg/ml ACTH in FCS, Log10 Dilution -1.0); 57% in the test with HTCA (500 pg/ml ACTH in FCS, Log10 Dilution -1.5); 53% in the test on HTCA (500 pg/ml ACTH in FCS, Log10 Dilution -2.0); 35% in the test on HTCA (500 pg/ml ACTH in FCS, Log10 Dilution -2.5). The “% Inhibition of Specific Binding” value turned out to be 32% in the test with HTCA (500 pg/ml ACTH in FCS, Log10 Dilution -3.0) and 20% in the test with HTCA (500 pg/ml ACTH in FCS, Log10 Dilution -3.5). Besides, the “Log10 Dilution at 50% inhibition” value in the test with HTCA (50 pg/ml serum sample) is -1.1; with HTCA (500 pg/ml serum sample), -2.0. Further, in test [2], the “effect on binding of anti-HTCA to affixed Y-1 cells” value is “blocked binding of the anti-HTCA in a dose dependent manner”.
For the molecule “QRDKGRLALLGGHEPAV [gamma-odne, H2 N--gln--arg--asp--lys--gly--arg--leu--ala--leu--leu--gly--gly--his--glu--pro--ala--val--COOH]”, on bovine gamma-endorphin, the “gamma-endorphin binding to coated wells (in words)” value is “significantly bound”. The “% Inhibition of Specific 125I-beta-endorphin” value in test [3] (10^-4 M) was determined as 75.0 ± 0.6%; in test [3] (10^-5 M) it was 36.0 ± 2.1%; in test [3] (10^-6 M, 30 min preincubation) it was 24.7 ± 3.9%.
